Converted amounts (≈) assume the structure as drawn.
What was measured:
[1] = system: Clostridioides difficile; test: Antibacterial activity against Clostridium difficile by CLSI M11-A6 agar dilution method; format: functional
[2] = system: Blautia producta; test: Antibacterial activity against Ruminococcus productus by CLSI M11-A6 agar dilution method; format: functional
[3] = system: Eggerthella lenta; test: Antibacterial activity against Eggerthella lenta by CLSI M11-A6 agar dilution method; format: functional
[4] = system: Ruminococcus obeum; test: Antibacterial activity against Ruminococcus obeum by CLSI M11-A6 agar dilution method; format: functional; settings: Blautia obeum
[5] = system: Actinomyces naeslundii; test: Antibacterial activity against Actinomyces naeslundii by CLSI M11-A6 agar dilution method; format: functional
[6] = system: Clostridium bolteae; test: Antibacterial activity against Clostridium bolteae by CLSI M11-A6 agar dilution method; format: functional; settings: Enterocloster bolteae
[7] = system: Finegoldia magna; test: Antibacterial activity against Finegoldia magna by CLSI M11-A6 agar dilution method; format: functional
[8] = system: Clostridium sporogenes; test: Antibacterial activity against Clostridium sporogenes by CLSI M11-A6 agar dilution method; format: functional
[9] = system: Clostridium sp.; test: Antibacterial activity against Clostridium sp. by CLSI M11-A6 agar dilution method; format: functional
[10] = system: Streptococcus anginosus; test: Antibacterial activity against Streptococcus anginosus by CLSI M11-A6 agar dilution method; format: functional
[11] = system: Parabacteroides distasonis; test: Antibacterial activity against Parabacteroides distasonis by CLSI M11-A6 agar dilution method; format: functional
[12] = system: Bacteroides ovatus; test: Antibacterial activity against Bacteroides ovatus by CLSI M11-A6 agar dilution method; format: functional
[13] = system: Prevotella bivia; test: Antibacterial activity against Prevotella bivia by CLSI M11-A6 agar dilution method; format: functional
[14] = system: Hoylesella oralis; test: Antibacterial activity against Prevotella oralis by CLSI M11-A6 agar dilution method; format: functional
[15] = system: Prevotella nigrescens; test: Antibacterial activity against Prevotella nigrescens by CLSI M11-A6 agar dilution method; format: functional
[16] = system: Blautia luti; test: Antibacterial activity against Ruminococcus luti by CLSI M11-A6 agar dilution method; format: functional
[17] = system: Prevotella intermedia; test: Antibacterial activity against Prevotella P intermedia by CLSI M11-A6 agar dilution method; format: functional
[18] = system: Fusobacterium varium; test: Antibacterial activity against Fusobacterium varium by CLSI M11-A6 agar dilution method; format: functional
[19] = system: Thomasclavelia ramosa; test: Antibacterial activity against Clostridium ramosum by CLSI M11-A6 agar dilution method; format: functional
[20] = system: Fusobacterium mortiferum; test: Antibacterial activity against Fusobacterium mortiferum by CLSI M11-A6 agar dilution method; format: functional
[21] = system: Bifidobacterium adolescentis; test: Antibacterial activity against Bifidobacterium adolescentis by CLSI M11-A6 agar dilution method; format: functional
[22] = system: Prevotella oris; test: Antibacterial activity against Prevotella oris by CLSI M11-A6 agar dilution method; format: functional; settings: Segatella oris
[23] = system: Sutterella wadsworthensis; test: Antibacterial activity against Sutterella wadsworthensis by CLSI M11-A6 agar dilution method; format: functional
[24] = system: Anaerococcus prevotii; test: Antibacterial activity against Anaerococcus prevotii by CLSI M11-A6 agar dilution method; format: functional
[25] = system: Holdemania filiformis; test: Antibacterial activity against Holdemania filiformis by CLSI M11-A6 agar dilution method; format: functional
[26] = system: Clostridium disporicum; test: Antibacterial activity against Clostridium disporicum by CLSI M11-A6 agar dilution method; format: functional
[27] = system: Clostridium paraputrificum; test: Antibacterial activity against Clostridium paraputrificum by CLSI M11-A6 agar dilution method; format: functional
[28] = system: Bifidobacterium pseudolongum; test: Antibacterial activity against Bifidobacterium pseudolongum by CLSI M11-A6 agar dilution method; format: functional
[29] = system: Ruminococcus albus; test: Antibacterial activity against Ruminococcus albus by CLSI M11-A6 agar dilution method; format: functional; settings: Hominimerdicola alba
[30] = system: Hoylesella loescheii; test: Antibacterial activity against Prevotella loescheii by CLSI M11-A6 agar dilution method; format: functional
[31] = system: Clostridium hathewayi; test: Antibacterial activity against Clostridium hathewayi by CLSI M11-A6 agar dilution method; format: functional; settings: Hungatella hathewayi
[32] = system: Collinsella aerofaciens; test: Antibacterial activity against Colinsella aerofaciens by CLSI M11-A6 agar dilution method; format: functional
[33] = system: Prevotella denticola; test: Antibacterial activity against Prevotella P denticola by CLSI M11-A6 agar dilution method; format: functional
[34] = system: Clostridium; test: Antibacterial activity against Clostridium hypermegas by CLSI M11-A6 agar dilution method; format: functional
[35] = system: Clostridium subterminale; test: Antibacterial activity against Clostridium subterminale by CLSI M11-A6 agar dilution method; format: functional
[36] = system: Clostridium sporosphaeroides; test: Antibacterial activity against Clostridium sporosphaeroides by CLSI M11-A6 agar dilution method; format: functional; settings: Faecalispora sporosphaeroides
[37] = system: Coriobacterium; test: Antibacterial activity against […] by CLSI M11-A6 agar dilution method; format: functional
[38] = Antibacterial activity against Bifidobacterium infantis by CLSI M11-A6 agar dilution method; format: functional, Bifidobacterium longum subsp. infantis; settings: Bifidobacterium longum
[39] = system: Coprobacillus cateniformis; test: Antibacterial activity against Coprobacillus cateniformis by CLSI M11-A6 agar dilution method; format: functional

## Cc1ncc([N+](=O)[O-])n1CCO [METRONIDAZOLE]
[1]
  MIC50: 0.5 µg/mL (≈ 2.92 µM)
  MIC90: 0.5 µg/mL (≈ 2.92 µM)
[2]
  MIC50: ≤ 0.12 µg/mL
  MIC90: 0.25 µg/mL (≈ 1.46 µM)
[3]
  MIC50: 1 µg/mL (≈ 5.84 µM)
  MIC90: 128 µg/mL (≈ 748 µM)
[4]
  MIC50: ≤ 0.12 µg/mL
  MIC90: ≤ 0.12 µg/mL
[5]
  MIC50: 1 µg/mL (≈ 5.84 µM)
  MIC90: 128 µg/mL (≈ 748 µM)
[6]
  MIC50: ≤ 0.12 µg/mL
  MIC90: 0.25 µg/mL (≈ 1.46 µM)
[7]
  MIC50: 0.5 µg/mL (≈ 2.92 µM)
  MIC90: 2 µg/mL (≈ 11.7 µM)
[8]
  MIC50: 0.25 µg/mL (≈ 1.46 µM)
  MIC90: 1 µg/mL (≈ 5.84 µM)
[9]
  MIC50: 0.25 µg/mL (≈ 1.46 µM)
  MIC90: 1 µg/mL (≈ 5.84 µM)
[10]
  MIC50: 128 µg/mL (≈ 748 µM)
  MIC90: > 128 µg/mL
[11]
  MIC50: 1 µg/mL (≈ 5.84 µM)
  MIC90: 2 µg/mL (≈ 11.7 µM)
[12]
  MIC50: 1 µg/mL (≈ 5.84 µM)
  MIC90: 2 µg/mL (≈ 11.7 µM)
[13]
  MIC50: 0.5 µg/mL (≈ 2.92 µM)
  MIC90: 1 µg/mL (≈ 5.84 µM)
[14]
  MIC50: 0.5 µg/mL (≈ 2.92 µM)
  MIC90: 1 µg/mL (≈ 5.84 µM)
[15]
  MIC50: 0.5 µg/mL (≈ 2.92 µM)
  MIC90: 1 µg/mL (≈ 5.84 µM)
[16]
  MIC50: ≤ 0.12 µg/mL
  MIC90: 0.25 µg/mL (≈ 1.46 µM)
[17]
  MIC50: 0.5 µg/mL (≈ 2.92 µM)
  MIC90: 1 µg/mL (≈ 5.84 µM)
[18]
  MIC50: ≤ 0.12 µg/mL
  MIC90: 0.25 µg/mL (≈ 1.46 µM)
[19]
  MIC50: 0.5 µg/mL (≈ 2.92 µM)
  MIC90: 1 µg/mL (≈ 5.84 µM)
[20]
  MIC50: ≤ 0.12 µg/mL
  MIC90: 0.25 µg/mL (≈ 1.46 µM)
[21]
  MIC50: 1 µg/mL (≈ 5.84 µM)
  MIC90: 128 µg/mL (≈ 748 µM)
[22]
  MIC50: 0.5 µg/mL (≈ 2.92 µM)
  MIC90: 1 µg/mL (≈ 5.84 µM)
[23]
  MIC50: 16 µg/mL (≈ 93.5 µM)
  MIC90: > 128 µg/mL
[24]
  MIC50: 0.5 µg/mL (≈ 2.92 µM)
  MIC90: 2 µg/mL (≈ 11.7 µM)
[25]
  MIC50: 1 µg/mL (≈ 5.84 µM)
  MIC90: 128 µg/mL (≈ 748 µM)
[26]
  MIC50: 0.25 µg/mL (≈ 1.46 µM)
  MIC90: 1 µg/mL (≈ 5.84 µM)
[27]
  MIC50: 0.25 µg/mL (≈ 1.46 µM)
  MIC90: 1 µg/mL (≈ 5.84 µM)
[28]
  MIC50: 1 µg/mL (≈ 5.84 µM)
  MIC90: 128 µg/mL (≈ 748 µM)
[29]
  MIC50: ≤ 0.12 µg/mL
  MIC90: 0.25 µg/mL (≈ 1.46 µM)
[30]
  MIC50: 0.5 µg/mL (≈ 2.92 µM)
  MIC90: 1 µg/mL (≈ 5.84 µM)
[31]
  MIC50: 0.25 µg/mL (≈ 1.46 µM)
  MIC90: 0.5 µg/mL (≈ 2.92 µM)
[32]
  MIC50: 1 µg/mL (≈ 5.84 µM)
  MIC90: 128 µg/mL (≈ 748 µM)
[33]
  MIC50: 0.5 µg/mL (≈ 2.92 µM)
  MIC90: 1 µg/mL (≈ 5.84 µM)
[34]
  MIC50: 0.25 µg/mL (≈ 1.46 µM)
  MIC90: 1 µg/mL (≈ 5.84 µM)
[35]
  MIC50: ≤ 0.12 µg/mL
  MIC90: 0.25 µg/mL (≈ 1.46 µM)
[36]
  MIC50: 0.25 µg/mL (≈ 1.46 µM)
  MIC90: 1 µg/mL (≈ 5.84 µM)
[37]
  MIC50: 1 µg/mL (≈ 5.84 µM)
  MIC90: 128 µg/mL (≈ 748 µM)
[38]
  MIC50: 1 µg/mL (≈ 5.84 µM)
  MIC90: 128 µg/mL (≈ 748 µM)
[39]
  MIC50: 1 µg/mL (≈ 5.84 µM)
  MIC90: 128 µg/mL (≈ 748 µM)
